Test results as given in patent US20060099284A1, “Composition containing an extract of fructus psoraleae for inhibiting anxiety and depression, improving memory and treating dementia” (priority 2004, published 2006).

System: male ICR mouse
Assay: Passive avoidance test: dementia treatment test (scopolamine)
Type: in vivo
Settings: scopolamine 1 mg/kg intraperitoneally after training; test after 24 hours; FIG. 5B
Experimental: A passive avoidance test was carried out using a Gemini avoidance system (San Diego Instruments, USA) one hour after extracts (fraction T, fraction C, fraction CM, or fraction M) of Fructus Psoraleae were orally administered to a male ICR mouse (20 g) in a dose of 10 mg/kg. The test was modified on the basis of a method by Kumar, et al. and carried out as follows (Kumar, V., Singh, P. N., Muruganandan, A. V., Bhattacharya, Effect of Indian Hypericum perforatum Linn on animal models of cognitive dysfunction; J Ethnopharmacology 72, p 119-128, 2000).
On the first day of a training test, a mouse was put into the bright box to be acclimated for 300 seconds, prior to moving the mouse into a dark box by automatically opening a door. If the mouse moved into a dark box, it was electrically stimulated one second at 0.3 mA. As soon as a training session was finished, scopolamine was intraperitoneally administered in a dose of 1 mg/kg. At the test after 24 hours, the mouse was acclimated in the bright box for 300 seconds, prior to moving the mouse into the dark box by opening a door. The time to move into the dark box was measured at this time. […]

Structure (SMILES): CN1[C@@H]2C[C@@H](OC(=O)[C@H](CO)c3ccccc3)C[C@H]1[C@@H]1O[C@@H]12 [scopolamine]
- memory failure compared with a control group: 66.6%
